Measured values as given in ChEMBL document CHEMBL1136671, “Amino propynyl benzoic acid building block in rigid spacers of divalent ligands binding to the Syk SH2 domains with equally high affinity as the natural ligand” (Bioorg Med Chem Lett, 2003).
Numbered stars: 1 amine (or outer) side, 2 acyl side, 3 side chain; on linkers, the order of the positions; unused ones are H or OH. Square brackets hold non-standard residues; d marks the D form. Peptide text beside a SMILES is read from it. NH(CH2CH2O)6CH2CO = O=C(COCCOCCOCCOCCOCCOCCN[*:1])[*:2]; pY = N[C@@H](Cc1ccc(OP(=O)(O)O)cc1)C(=O)O; X1 = O=C(c1ccc(C#CCN[*:1])cc1)[*:2]

Tests used:
[1] = target: T1, Tyrosine-protein kinase SYK (Homo sapiens, UniProt P43405); test: Binding affinity for Syk tandem SH2 domain in surface plasmon resonance assay (SPR)
[2] = target: T1, Tyrosine-protein kinase SYK; test: Dissociation binding constant for Syk tandem SH2 domain

`CC(=O)N[C@@H](Cc1ccc(OP(=O)(O)O)cc1)C(=O)N[C@@H](CCC(=O)O)C(=O)N[C@H](C(=O)N[C@@H](CC(C)C)C(N)=O)[C@@H](C)O` (Ac-[pY]ETL-NH2) gave an IC50 [1] of 570000 nM and a Kd [2] of 166000 nM.

Compound `CC(=O)N[C@@H](Cc1ccc(OP(=O)(O)O)cc1)C(=O)N[C@H](C(=O)NCC(=O)N[C@@H](CC(C)C)C(=O)NCC(=O)NCC#Cc1ccc(C(=O)NCC(=O)N[C@@H](Cc2ccc(OP(=O)(O)O)cc2)C(=O)N[C@@H](CCC(=O)O)C(=O)N[C@H](C(=O)N[C@@H](CC(C)C)C(N)=O)[C@@H](C)O)cc1)[C@@H](C)O` (Ac-[pY]TGLG[X1]G[pY]ETL-NH2) has an IC50 [1] of 62000 nM and a Kd [2] of 4000 nM.

For `CC(=O)N[C@@H](Cc1ccc(OP(=O)(O)O)cc1)C(=O)N[C@H](C(=O)NCC(=O)N[C@@H](CC(C)C)C(=O)N[C@@H](CC(N)=O)C(=O)N[C@H](C(=O)N[C@@H](CCCN=C(N)N)C(=O)N[C@@H](CO)C(=O)N[C@@H](CCC(N)=O)C(=O)N[C@@H](CCC(=O)O)C(=O)N[C@H](C(=O)N[C@@H](Cc1ccc(OP(=O)(O)O)cc1)C(=O)N[C@@H](CCC(=O)O)C(=O)N[C@H](C(=O)N[C@@H](CC(C)C)C(N)=O)[C@@H](C)O)[C@@H](C)O)[C@@H](C)O)[C@@H](C)O` (Ac-[pY]TGLNTRSQET[pY]ETL-NH2), the IC50 [1] was 130 nM and the Kd [2] was 37 nM.

`CC(=O)N[C@@H](Cc1ccc(OP(=O)(O)O)cc1)C(=O)N[C@H](C(=O)NCC(=O)N[C@@H](CC(C)C)C(=O)NCCOCCOCCOCCOCCOCCOCC(=O)N[C@@H](Cc1ccc(OP(=O)(O)O)cc1)C(=O)N[C@@H](CCC(=O)O)C(=O)N[C@H](C(=O)N[C@@H](CC(C)C)C(N)=O)[C@@H](C)O)[C@@H](C)O` (Ac-[pY]TGL[NH(CH2CH2O)6CH2CO][pY]ETL-NH2) was tested, and the IC50 [1] was 1200 nM and the Kd [2] was 340 nM.

Compound `CC(=O)N[C@@H](Cc1ccc(OP(=O)(O)O)cc1)C(=O)N[C@H](C(=O)NCC(=O)N[C@@H](CC(C)C)C(=O)NCC#Cc1ccc(C(=O)NCC#Cc2ccc(C(=O)N[C@@H](Cc3ccc(OP(=O)(O)O)cc3)C(=O)N[C@@H](CCC(=O)O)C(=O)N[C@H](C(=O)N[C@@H](CC(C)C)C(N)=O)[C@@H](C)O)cc2)cc1)[C@@H](C)O` (Ac-[pY]TGL[X1][X1][pY]ETL-NH2) has an IC50 [1] of 100 nM and a Kd [2] of 29 nM.
